Data: ChEMBL document CHEMBL5465560, “Selectivity Literature for EUbOPEN Chemogenomic Library” (2024)

Legend:
[1] = molecular target: Cyclin-dependent kinase 15 (Homo sapiens) (UniProt Q96Q40); assay: Selectivity interaction (KinomeScan (DiscoverX)) EUB0001049a CDK15; conditions: at 1 µM
[2] = molecular target: Serine/threonine-protein kinase PLK2 (Homo sapiens, UniProt Q9NYY3); assay: Selectivity interaction (KinomeScan (DiscoverX)) EUB0001079a PLK2; conditions: at 1 µM
[3] = molecular target: Ephrin type-A receptor 5 (Homo sapiens) (UniProt P54756); assay: Selectivity interaction (Kinase panel (Invitrogen)) EUB0000639a EPHA5; conditions: at 200 nM
[4] = molecular target: Mitogen-activated protein kinase kinase kinase kinase 1 (Homo sapiens) (UniProt Q92918); assay: Selectivity interaction (ActivX KiNativ screen (kinase selectivity in THP-1 cell lysates)) EUB0000639a MAP4K1; assay type: subcellular; conditions: lysate, at 0.2 µM
[5] = molecular target: Mitogen-activated protein kinase 8 (Homo sapiens, UniProt P45983); assay: Selectivity interaction (Kinase panel (Invitrogen)) EUB0000639a MAPK8; conditions: at 200 nM
Misshapen-like kinase 1 = Misshapen-like kinase 1 (Homo sapiens, UniProt Q8N4C8); assay: Selectivity interaction (Kinase panel (Invitrogen)) EUB0000639a MINK1; conditions: at 200 nM
[6] = molecular target: Mitogen-activated protein kinase kinase kinase 11 (Homo sapiens) (UniProt Q16584); assay: Selectivity interaction (ActivX KiNativ screen (kinase selectivity in THP-1 cell lysates)) EUB0000639a MAP3K11; assay type: subcellular; conditions: lysate, at 0.04 µM
[7] = molecular target: T1, Serine/threonine-protein kinase D3 (Homo sapiens) (UniProt O94806); assay: Selectivity interaction (ActivX KiNativ screen (kinase selectivity in THP-1 cell lysates)) EUB0000639a PRKD3; assay type: subcellular; conditions: lysate, at 5 µM
T1 sequence (whole entry): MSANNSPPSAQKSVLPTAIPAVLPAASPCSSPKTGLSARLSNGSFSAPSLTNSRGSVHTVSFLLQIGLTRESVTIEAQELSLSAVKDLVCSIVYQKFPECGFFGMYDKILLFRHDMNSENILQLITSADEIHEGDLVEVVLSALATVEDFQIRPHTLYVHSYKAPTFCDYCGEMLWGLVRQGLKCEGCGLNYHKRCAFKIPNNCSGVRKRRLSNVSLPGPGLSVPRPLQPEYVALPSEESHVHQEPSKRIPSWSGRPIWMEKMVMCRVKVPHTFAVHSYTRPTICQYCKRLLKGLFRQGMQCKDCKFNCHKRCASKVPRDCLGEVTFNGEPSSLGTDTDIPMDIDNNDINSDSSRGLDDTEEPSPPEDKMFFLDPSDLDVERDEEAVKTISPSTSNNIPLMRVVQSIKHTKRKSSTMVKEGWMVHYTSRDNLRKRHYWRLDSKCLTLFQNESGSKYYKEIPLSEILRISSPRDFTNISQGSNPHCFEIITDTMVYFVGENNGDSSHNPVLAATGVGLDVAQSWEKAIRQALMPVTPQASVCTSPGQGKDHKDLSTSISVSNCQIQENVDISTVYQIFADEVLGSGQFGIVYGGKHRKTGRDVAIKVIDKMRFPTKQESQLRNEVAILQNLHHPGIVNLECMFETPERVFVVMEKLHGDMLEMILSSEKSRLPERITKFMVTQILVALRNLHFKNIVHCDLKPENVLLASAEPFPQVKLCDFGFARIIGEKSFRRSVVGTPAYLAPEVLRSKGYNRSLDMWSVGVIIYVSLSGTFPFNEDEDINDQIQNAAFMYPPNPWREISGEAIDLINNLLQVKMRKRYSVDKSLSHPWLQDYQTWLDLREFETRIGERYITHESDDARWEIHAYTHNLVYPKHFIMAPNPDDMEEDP

[8] = molecular target: Cyclin-dependent kinase-like 1 (Homo sapiens) (UniProt Q00532); assay: Selectivity interaction (KinomeScan (DiscoverX)) EUB0000092b CDKL1; conditions: at 10 µM
[9] = molecular target: Activin receptor type-2A (Homo sapiens) (UniProt P27037); assay: Selectivity interaction (Ambit KINOMEscan and KiNATiv profiling in Jurkat cells) EUB0000090b ACVR2A; assay type: cell-based; conditions: at 1 µM
[10] = molecular target: Protein kinase C eta type (Homo sapiens) (UniProt P24723); assay: Selectivity interaction (KinomeScan (DiscoverX)) EUB0000618a PRKCH; conditions: at 10 µM
[11] = molecular target: Homeodomain-interacting protein kinase 3 (Homo sapiens, UniProt Q9H422); conditions: at 10 µM
[12] = molecular target: Serine/threonine-protein kinase 32B (Homo sapiens) (UniProt Q9NY57); conditions: at 10 µM
[13] = molecular target: Casein kinase I isoform gamma-2 (Homo sapiens) (UniProt P78368); assay: Selectivity interaction (KinomeScan (DiscoverX)) EUB0000655a CSNK1G2; conditions: at 10 µM
[14] = molecular target: T2, Serine/threonine-protein kinase haspin (Homo sapiens) (UniProt Q8TF76); assay: Selectivity interaction (KinomeScan (DiscoverX)) EUB0000607a GSG2; conditions: at 10 µM
T2 sequence (whole entry): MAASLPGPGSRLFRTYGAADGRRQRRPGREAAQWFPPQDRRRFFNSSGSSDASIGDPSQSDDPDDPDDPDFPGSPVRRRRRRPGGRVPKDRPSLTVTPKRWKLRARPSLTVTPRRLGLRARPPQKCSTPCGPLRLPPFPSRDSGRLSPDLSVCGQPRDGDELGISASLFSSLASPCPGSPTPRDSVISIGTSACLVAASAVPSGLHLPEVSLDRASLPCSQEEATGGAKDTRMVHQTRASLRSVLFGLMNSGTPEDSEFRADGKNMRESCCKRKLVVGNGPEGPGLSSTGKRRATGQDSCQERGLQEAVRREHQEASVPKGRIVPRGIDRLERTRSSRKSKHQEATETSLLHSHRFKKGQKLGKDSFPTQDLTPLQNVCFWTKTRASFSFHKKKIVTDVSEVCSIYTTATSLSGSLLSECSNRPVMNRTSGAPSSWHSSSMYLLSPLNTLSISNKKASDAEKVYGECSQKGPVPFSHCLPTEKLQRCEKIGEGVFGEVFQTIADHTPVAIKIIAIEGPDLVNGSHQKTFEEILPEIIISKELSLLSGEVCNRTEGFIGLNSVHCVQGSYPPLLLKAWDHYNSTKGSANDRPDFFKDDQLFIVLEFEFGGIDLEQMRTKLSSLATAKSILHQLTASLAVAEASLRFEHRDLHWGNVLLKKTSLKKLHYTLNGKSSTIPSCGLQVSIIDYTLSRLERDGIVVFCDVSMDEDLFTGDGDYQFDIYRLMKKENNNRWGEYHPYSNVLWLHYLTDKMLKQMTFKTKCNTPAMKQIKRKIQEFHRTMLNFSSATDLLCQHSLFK

Mitogen-activated protein kinase kinase kinase kinase 1 (Homo sapiens), sequence (Q92918 whole entry, looked up): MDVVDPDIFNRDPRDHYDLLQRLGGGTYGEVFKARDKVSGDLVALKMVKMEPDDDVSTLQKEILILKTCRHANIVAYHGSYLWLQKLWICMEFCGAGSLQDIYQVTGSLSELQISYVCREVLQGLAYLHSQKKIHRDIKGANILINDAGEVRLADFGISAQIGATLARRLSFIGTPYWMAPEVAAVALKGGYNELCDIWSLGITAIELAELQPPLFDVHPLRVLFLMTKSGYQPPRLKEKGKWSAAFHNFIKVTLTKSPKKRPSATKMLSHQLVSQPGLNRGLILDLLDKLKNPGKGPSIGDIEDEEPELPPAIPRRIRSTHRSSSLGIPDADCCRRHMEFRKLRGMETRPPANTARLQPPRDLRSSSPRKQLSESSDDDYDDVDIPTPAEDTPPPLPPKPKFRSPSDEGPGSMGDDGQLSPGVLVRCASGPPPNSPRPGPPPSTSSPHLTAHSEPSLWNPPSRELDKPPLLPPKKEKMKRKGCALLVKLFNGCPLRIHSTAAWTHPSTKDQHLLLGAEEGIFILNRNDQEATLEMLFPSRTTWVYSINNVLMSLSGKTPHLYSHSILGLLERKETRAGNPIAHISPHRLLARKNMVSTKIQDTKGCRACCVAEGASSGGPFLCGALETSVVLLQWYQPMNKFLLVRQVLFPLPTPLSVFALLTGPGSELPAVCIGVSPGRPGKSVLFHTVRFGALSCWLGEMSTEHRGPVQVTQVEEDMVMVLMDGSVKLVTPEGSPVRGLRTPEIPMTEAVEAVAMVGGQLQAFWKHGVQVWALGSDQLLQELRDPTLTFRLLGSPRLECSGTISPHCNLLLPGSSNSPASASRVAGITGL
Serine/threonine-protein kinase PLK2, sequence (Q9NYY3 whole entry, looked up): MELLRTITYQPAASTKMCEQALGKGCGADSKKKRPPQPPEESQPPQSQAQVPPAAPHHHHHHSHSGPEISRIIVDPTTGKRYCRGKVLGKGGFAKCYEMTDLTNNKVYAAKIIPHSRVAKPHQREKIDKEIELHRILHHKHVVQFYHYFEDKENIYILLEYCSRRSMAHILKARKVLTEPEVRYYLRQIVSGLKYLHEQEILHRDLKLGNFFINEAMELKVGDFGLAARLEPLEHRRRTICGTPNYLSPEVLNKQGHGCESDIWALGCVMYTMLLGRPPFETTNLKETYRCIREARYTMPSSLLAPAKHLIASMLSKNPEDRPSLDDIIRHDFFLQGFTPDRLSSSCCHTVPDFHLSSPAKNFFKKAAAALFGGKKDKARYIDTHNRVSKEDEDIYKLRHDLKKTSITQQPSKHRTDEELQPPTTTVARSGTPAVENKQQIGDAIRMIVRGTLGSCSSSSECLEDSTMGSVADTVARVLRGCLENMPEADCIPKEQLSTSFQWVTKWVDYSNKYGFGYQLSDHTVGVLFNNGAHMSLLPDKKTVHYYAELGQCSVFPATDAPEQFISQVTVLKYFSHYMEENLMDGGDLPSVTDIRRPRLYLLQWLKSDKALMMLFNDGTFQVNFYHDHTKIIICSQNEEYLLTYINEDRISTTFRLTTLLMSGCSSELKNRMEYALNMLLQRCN
Cyclin-dependent kinase-like 1 (Homo sapiens), sequence (Q00532 whole entry): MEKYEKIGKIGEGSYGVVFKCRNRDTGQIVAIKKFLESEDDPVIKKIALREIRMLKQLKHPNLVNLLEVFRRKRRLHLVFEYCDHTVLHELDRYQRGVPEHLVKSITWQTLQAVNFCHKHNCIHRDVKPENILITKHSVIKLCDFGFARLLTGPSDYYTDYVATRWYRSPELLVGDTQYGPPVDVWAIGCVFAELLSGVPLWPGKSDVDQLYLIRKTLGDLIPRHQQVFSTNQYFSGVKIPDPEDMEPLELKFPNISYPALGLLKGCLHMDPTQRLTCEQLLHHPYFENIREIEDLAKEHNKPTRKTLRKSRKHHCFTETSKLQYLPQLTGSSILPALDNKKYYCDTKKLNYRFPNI
Ephrin type-A receptor 5 (Homo sapiens), sequence (P54756 whole entry): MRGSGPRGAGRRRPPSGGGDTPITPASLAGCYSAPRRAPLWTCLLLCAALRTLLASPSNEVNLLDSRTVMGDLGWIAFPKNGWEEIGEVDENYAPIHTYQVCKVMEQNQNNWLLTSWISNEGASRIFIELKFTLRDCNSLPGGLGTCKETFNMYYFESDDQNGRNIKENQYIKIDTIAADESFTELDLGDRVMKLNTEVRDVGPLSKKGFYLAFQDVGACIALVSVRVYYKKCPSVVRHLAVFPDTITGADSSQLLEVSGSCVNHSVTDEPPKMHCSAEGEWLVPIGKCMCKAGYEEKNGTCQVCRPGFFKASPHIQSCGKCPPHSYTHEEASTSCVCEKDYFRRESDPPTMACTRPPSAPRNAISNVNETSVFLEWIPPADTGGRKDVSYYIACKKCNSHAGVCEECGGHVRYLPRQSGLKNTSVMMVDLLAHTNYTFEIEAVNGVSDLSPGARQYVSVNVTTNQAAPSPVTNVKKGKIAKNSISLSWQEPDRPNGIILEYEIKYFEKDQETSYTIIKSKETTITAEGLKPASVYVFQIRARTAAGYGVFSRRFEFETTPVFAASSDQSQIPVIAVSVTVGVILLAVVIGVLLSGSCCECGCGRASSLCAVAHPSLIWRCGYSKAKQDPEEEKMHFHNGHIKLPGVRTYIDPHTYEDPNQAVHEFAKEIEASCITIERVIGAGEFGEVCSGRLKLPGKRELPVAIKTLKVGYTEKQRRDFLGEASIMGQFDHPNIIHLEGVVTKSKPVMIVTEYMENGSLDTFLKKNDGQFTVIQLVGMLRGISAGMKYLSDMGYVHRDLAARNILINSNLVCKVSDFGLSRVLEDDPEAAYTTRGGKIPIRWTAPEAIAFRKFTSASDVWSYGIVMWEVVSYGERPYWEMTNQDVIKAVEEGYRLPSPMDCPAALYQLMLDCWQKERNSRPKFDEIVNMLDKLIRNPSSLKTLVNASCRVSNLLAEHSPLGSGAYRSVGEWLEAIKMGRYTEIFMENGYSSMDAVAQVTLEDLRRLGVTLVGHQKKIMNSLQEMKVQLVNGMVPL
Misshapen-like kinase 1, sequence (Q8N4C8 whole entry, looked up): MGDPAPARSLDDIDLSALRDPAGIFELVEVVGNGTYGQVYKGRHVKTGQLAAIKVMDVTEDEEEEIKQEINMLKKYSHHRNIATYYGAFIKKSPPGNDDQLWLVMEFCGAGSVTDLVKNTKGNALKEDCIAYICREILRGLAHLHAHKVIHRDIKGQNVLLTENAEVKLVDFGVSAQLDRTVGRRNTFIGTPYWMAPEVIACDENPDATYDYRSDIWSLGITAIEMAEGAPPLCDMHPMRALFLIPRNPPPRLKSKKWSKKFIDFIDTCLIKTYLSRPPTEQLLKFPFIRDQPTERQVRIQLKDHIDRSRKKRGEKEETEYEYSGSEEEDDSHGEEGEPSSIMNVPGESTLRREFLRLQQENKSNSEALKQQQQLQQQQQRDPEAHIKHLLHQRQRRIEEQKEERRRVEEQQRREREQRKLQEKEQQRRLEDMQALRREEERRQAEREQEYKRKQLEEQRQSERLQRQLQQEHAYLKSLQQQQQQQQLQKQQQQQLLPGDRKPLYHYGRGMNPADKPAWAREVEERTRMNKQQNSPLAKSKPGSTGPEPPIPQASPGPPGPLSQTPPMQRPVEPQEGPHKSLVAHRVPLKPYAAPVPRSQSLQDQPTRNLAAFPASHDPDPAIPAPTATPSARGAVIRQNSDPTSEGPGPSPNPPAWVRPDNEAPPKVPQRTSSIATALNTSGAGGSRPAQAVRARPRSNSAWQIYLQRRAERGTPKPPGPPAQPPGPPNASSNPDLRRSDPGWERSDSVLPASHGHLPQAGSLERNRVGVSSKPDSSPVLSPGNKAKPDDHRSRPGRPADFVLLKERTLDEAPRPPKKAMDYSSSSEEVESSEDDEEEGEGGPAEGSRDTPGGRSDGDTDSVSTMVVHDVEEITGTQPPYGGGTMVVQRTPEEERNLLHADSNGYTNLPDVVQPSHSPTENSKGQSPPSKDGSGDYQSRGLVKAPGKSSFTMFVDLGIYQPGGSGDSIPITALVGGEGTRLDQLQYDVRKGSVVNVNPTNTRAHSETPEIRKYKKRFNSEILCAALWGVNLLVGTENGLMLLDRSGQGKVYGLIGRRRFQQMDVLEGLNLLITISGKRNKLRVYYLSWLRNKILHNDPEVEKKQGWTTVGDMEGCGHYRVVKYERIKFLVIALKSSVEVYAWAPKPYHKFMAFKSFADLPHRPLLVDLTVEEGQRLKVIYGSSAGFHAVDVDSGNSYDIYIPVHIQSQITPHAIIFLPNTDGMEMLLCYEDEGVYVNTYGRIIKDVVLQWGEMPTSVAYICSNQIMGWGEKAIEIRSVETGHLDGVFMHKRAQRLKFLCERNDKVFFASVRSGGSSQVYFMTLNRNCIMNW
Mitogen-activated protein kinase 8, sequence (P45983 whole entry): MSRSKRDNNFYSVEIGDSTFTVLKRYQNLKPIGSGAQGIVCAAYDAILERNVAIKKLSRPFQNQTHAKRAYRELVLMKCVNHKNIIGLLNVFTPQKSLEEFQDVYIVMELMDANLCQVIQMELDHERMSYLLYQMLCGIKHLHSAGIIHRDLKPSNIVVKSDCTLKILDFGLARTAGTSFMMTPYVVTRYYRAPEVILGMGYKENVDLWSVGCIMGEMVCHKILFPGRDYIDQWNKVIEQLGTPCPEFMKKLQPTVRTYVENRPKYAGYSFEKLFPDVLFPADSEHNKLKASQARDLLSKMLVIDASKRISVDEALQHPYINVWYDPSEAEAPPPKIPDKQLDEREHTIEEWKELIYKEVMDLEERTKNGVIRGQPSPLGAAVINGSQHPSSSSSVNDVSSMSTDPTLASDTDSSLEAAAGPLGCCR

`COc1cc(Nc2nc(C)cc(-c3cnn4nc(OC)ccc34)n2)cc(C(F)(F)F)c1` gave a % of control [1] of 90%.

Work on `Nc1cnc(N2CCc3cc(S(=O)(=O)Nc4c(F)cc(Cl)cc4F)cc(N4CCCC4=O)c32)nc1` [TP-020n] yielded a % of control [2] of 100%.

Molecule `CC[C@@H]1[C@H](F)C(=O)N[C@@H]1COc1nccc2cc(C(N)=O)c(OC)cc12` [ZIMLOVISERTIB] has a % of inhibition [3] of -0.246%, a % of inhibition [4] of -15.1% and a % of inhibition [5] of -0.665%. The % of inhibition (Misshapen-like kinase 1) was 18.8%, the % of inhibition [6] was -8.9% and the % of inhibition [7] was -5.2%.

For `CCC(=O)N1CCN(c2ccc(-n3c(=O)ccc4cnc5ccc(-c6cnc7ccccc7c6)cc5c43)cc2C(F)(F)F)CC1`, the % of control [8] was 100%.

For `CN(C)C/C=C/C(=O)Nc1ccc(C(=O)N2CCCC(Nc3ncc(Cl)c(-c4c[nH]c5ccccc45)n3)C2)cc1` (stereo not given), the % of control [9] was 83%.

With `O[C@H]1CC[C@H](Nc2ncc3nc(Nc4c(F)cc(F)cc4F)n([C@H]4CCOC4)c3n2)CC1` the % of control [10] was 96%.

`Cc1cc([C@@H](C)Nc2ccccc2C(=O)O)c2nc(N3CCOCC3)cc(=O)n2c1` [AZD-6482] gave a % of control [11] of 89% and a % of control [12] of 71%.

For `CN(C)CCOc1ccc(-c2nc(-c3ccncc3)c(-c3ccc4c(c3)CC/C4=N\O)[nH]2)cc1`, the % of control [13] was 72%.

For `CNC(=O)Nc1ccc(-c2nc(N3CC4CCC(C3)O4)c3cnn(C4CCC5(CC4)OCCO5)c3n2)cc1`, the % of control [14] was 100%.
